Source: US20120059005A1, “COMBINATION OF (A) A PHOSPHOINOSITIDE 3-KINASE INHIBITOR AND (B) AN ANTIDIABETIC COMPOUND FOR USE IN THE TREATMENT OF PROLIFERATIVE DISEASES” (NOVARTIS AG, priority 2009, published 2012)

System: A549 non-small cell lung tumors
Assay: A549 xenograft 20-day tumor growth inhibition assay
Assay type: in vivo, nude mice
Experimental: A549 human non-small cell lung cancer (NSCLC) cells are treated with different doses of the 2-Methyl-2-[4-(3-methyl-2-oxo-8-quinolin-3-yl-2,3-dihydro-imidazo[4, 5-c]quinolin-1-yl)-phenyl]-propionitrile monotosylate salt (also known as COMPOUND A) or 5-(2,6-di-morpholin-4-yl-pyrimidin-4-yl)-4-trifluoromethyl-pyridin-2-ylamine hydrochloride salt (also known as COMPOUND C), a single dose of metformin or both agents in combination. The A549 human NSCLC cells (ATCC-CCL-185, available from American Type Culture Collection, Rockville, Md. US) display characteristics of type II alveolar epithelial cells (Lieber et al, Int, J, Cancer 17(1): 62-70 [1976]), The A549 NSCLC cells are homozygous for mutations in the tumor suppressor genes, CDKN2A and STK11 (also called LKB1), and in KRAS. (Wellcome Trust Sanger Institute, Catalogue of Somatic Mutations in Cancer, Cosmic ID No, 905949, available at website http://www.sanger.ac.uk/peri/genetics/CGP/core_line_viewer?action=sample&name=A549.)
A549 tumor cells are grown in Kaighn's modified Ham's F12 medium containing 100 units/mL penicillin G sodium, 100 μg/mL streptomycin sulfate, 25 μg/mL gentamicin, […], 2 mM glutamine, and 1 mM sodium pyruvate. The cells are cultured in tissue culture flasks in a humidified incubator at 37° C., in an atmosphere of 5% CO2 and 95% air. The cells are harvested for injection into 9-week old female nu/nu (nude) mice (Harlan Laboratories, Indianapolis, Ind.) by detaching the monolayers with 2X trypsin and resuspending at 5×10^7cells/mL in cold phosphate-buffered saline containing 50% Matrigel.
0.2 mL of A549 cell suspension (1×10^7 cells) is injected subcutaneously in the right flank of 9-week old female flu/flu (nude) mice (Harlan Laboratories, Indianapolis, Ind.) having a body weight (BW) range of 19.9-27.3 g on Day 1 of the study, Tumors are callipered in two dimensions to monitor their growth as their mean volume approached 150-220 mm^3, Twenty-two days after implantation, the mice are sorted into 11 groups of eight or nine mice having individual tumor sizes of 108-221 mm^3. Tumor volume in mm^3 is determined using the formula [(width)^2×(length)][…], where width width of the tumor in mm and length=length of the tumor in mm. Tumor weight can be estimated with the assumption that 1 mg is equivalent to 1 mm^3 of tumor volume.
The 11 groups of nude mice are treated as follows. One group of nine mice serves as Controls (C or Control) for all analyses and is administered intraperitoneally (i,p,) 50 mM sodium acetate at pH 4 (Vehicle 1) and then administered by oral gavage (p.o.) a composition comprising 10% N-methylpyrrolidone: 90% polyethylene glycol 300 (PEG300) (Vehicle 2). […] Metformin is dissolved in 50 mM sodium acetate at pH 4 for dosing,
Compound A and Compound C are stored at −20° C. protected from light. Stock solutions (10X) in 100% N-methylpyrrolidone (NMP) are prepared every five days, aliquotted, and stored in the dark at room temperature. On each treatment day, stock solution aliquots are diluted with polyethylene glycol (PEG300) to provide the formulated drug (Compound A or Compound C) in 10% NMP: 90% PEG300. Dosing solutions are protected from light, and the formulated drug is administered within 1 hour after preparation.
For combination therapies, Compound A or Compound C are administered by oral gavage (p.o.) within 30 minutes after the intraperitoneal (i.p.) administration of metformin , except on Day 20 when Compound A or Compound C is given immediately after metformin.
Paclitaxel (Natural Pharmaceuticals, Inc., Beverly, Mass., USA) is administered by bolus tail-vein injections (i v) once daily on alternate days for five doses. Paclitaxel is dissolved in 50% ethanol and 50% Cremophor® EL to prepare a 10X stock solution stored at room temperature. On each day of dosing, an aliquot of the paclitaxel stock solution is diluted with 5% dextrose in water to yield a dosing solution containing 5% ethanol and 5% Cremophor®EL.

[1] = Compound A 41.1 mg/kg p.o., 1x daily, Day 20
[2] = Compound A 68.5 mg/kg p.o., 1x daily, Day 20
[3] = Compound C 32.7 mg/kg p.o., 1x daily, Day 20
[4] = Compound C 54.4 mg/kg p.o., 1x daily, Day 20
[5] = Metformin 192.3 mg/kg i.p., 1x daily, Day 20
[6] = Paclitaxel 30 mg/kg i.v., 1x on alternate days for 5 doses, Day 20

## Cn1c(=O)n(-c2ccc(C(C)(C)C#N)cc2)c2c3cc(-c4cnc5ccccc5c4)ccc3ncc21 [Compound A, 2-Methyl-2-[4-(3-methyl-2-oxo-8-quinolin-3-yl-2,3-dihydro-imidazo[4,5-c]quinolin-1-yl)-phenyl]-propionitrile]
[1]
  Mean Tumor Vol. Change: 58 mm^3
  Regression: None
  T/C: 18% (ns)
[2]
  Mean Tumor Vol. Change: −51 mm^3
  Regression: 3 Partial
  T/T0: −31% (T/T0,

## Nc1cc(C(F)(F)F)c(-c2cc(N3CCOCC3)nc(N3CCOCC3)n2)cn1 [Compound C, 5-(2,6-di-morpholin-4-yl-pyrimidin-4-yl)-4-trifluoromethyl-pyridin-2-ylamine]
[3]
  Mean Tumor Vol. Change: 63 mm^3
  Regression: None
  T/C: 20% (ns)
[4]
  Mean Tumor Vol. Change: −80 mm^3
  Regression: None
  T/T0: −48% (T/T0,

## CN(C)C(=N)N=C(N)N [Metformin, dimethyldiguanide, reference compound]
[5]
  Mean Tumor Vol. Change: 221 mm^3
  Regression: None
Metformin monotherapy at 192.3 mg/kg
  activity in the 20-day tumor growth inhibition assay: did not appear active
mouse, in vivo
  T/C: 69% (ns)

## CC(=O)O[C@H]1C(=O)[C@@]2(C)[C@H]([C@H](OC(=O)c3ccccc3)[C@]3(O)C[C@H](OC(=O)[C@H](O)[C@@H](NC(=O)c4ccccc4)c4ccccc4)C(C)=C1C3(C)C)[C@]1(OC(C)=O)CO[C@@H]1C[C@@H]2O [Paclitaxel, reference compound]
[6]
  Mean Tumor Vol. Change: 9 mm^3
  Regression: None
  T/C: 3%
